Laboratory results taken from patent US20250064941A1, “SIGLEC LIGANDS, CONJUGATES, AND METHODS OF USE THEREOF” (Osprey Biopharmaceuticals, Inc., priority 2023, published 2025).

Legend:
cynomolgus Siglec-2/CD22 = cynomolgus Siglec-2/CD22 (Macaca fascicularis, UniProt A0A2K5WCZ6); test: biochemical; assay type: binding; settings: SPR, steady-state analysis; read-out: Affinity cyno CD22
Summary of the method: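 SPR with desialylated (SialoExo, 4 h, 37° C.) cynomolgus CD22 amine-coupled to a CM5 chip. Running buffer 10 mM HEPES, 150 mM NaCl, 0.05% Tween-20, pH 7.5, 1% DMSO, with solvent correction; 120 s dissociation. Affinities from steady-state analysis.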

[1] = biological target: T1, human Siglec-2/CD22 protein (Homo sapiens, UniProt P20273); test: SPR binding affinity to human CD22; settings: steady-state analysis
T1 construct: purchased Acro Biosystems SI2-H82E3
T1 sequence (P20273 20-847): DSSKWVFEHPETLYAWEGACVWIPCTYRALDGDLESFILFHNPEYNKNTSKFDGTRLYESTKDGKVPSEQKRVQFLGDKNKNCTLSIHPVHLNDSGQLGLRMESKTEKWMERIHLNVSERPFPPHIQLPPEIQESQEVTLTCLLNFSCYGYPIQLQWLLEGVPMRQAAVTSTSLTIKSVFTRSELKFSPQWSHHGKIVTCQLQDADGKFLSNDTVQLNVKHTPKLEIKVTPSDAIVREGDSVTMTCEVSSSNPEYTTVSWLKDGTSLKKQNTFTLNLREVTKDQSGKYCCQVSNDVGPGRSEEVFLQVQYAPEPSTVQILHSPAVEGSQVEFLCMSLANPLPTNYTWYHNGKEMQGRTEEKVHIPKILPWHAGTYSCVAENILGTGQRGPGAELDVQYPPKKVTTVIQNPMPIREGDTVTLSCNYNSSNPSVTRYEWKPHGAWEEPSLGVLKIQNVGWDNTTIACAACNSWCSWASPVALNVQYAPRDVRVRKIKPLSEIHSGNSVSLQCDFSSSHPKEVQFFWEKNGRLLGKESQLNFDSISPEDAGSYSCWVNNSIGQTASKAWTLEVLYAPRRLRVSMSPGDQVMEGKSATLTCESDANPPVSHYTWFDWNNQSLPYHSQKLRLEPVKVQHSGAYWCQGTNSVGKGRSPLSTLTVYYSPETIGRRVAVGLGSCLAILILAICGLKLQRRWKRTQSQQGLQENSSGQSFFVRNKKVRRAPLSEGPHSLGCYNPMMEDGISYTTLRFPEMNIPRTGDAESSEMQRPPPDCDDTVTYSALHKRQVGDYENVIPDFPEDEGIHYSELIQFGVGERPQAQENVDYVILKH
Summary of the method: (§1)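 Native sialic acid residues are removed from the receptor enzymatically (4 hours at 37° C.) prior to streptavidin capture of the biotinylated protein. Ligand compounds then flow over in HEPES-buffered saline, pH 7.5, containing 0.05% Tween-20 and 1% DMSO, and binding is evaluated at steady state.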

[2] = biological target: T2, mouse Siglec-2-Fc-Avi (CD22) (Mus musculus, UniProt P35329); test: SPR binding affinity to mouse CD22; settings: steady-state analysis
T2 construct: made in house
T2 sequence (P35329 22-708 limits assumed): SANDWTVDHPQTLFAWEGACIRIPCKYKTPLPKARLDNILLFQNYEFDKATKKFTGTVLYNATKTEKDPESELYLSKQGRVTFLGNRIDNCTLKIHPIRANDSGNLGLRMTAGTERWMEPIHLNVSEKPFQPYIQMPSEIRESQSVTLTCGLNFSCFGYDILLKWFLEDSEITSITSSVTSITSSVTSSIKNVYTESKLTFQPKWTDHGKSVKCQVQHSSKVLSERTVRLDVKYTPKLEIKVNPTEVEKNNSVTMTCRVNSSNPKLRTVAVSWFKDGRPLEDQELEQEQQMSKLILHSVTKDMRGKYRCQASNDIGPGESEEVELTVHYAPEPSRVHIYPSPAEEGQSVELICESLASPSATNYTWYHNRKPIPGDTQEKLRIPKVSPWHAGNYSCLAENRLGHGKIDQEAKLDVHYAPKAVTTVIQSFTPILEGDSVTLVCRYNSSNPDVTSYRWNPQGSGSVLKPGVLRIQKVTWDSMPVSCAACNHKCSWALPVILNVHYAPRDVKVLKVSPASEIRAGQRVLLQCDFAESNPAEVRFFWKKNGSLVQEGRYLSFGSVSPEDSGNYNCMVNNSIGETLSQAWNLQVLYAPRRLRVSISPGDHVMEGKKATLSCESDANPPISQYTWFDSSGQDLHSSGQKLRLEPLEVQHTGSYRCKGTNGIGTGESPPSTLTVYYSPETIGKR
Summary of the method: as §1

Sequence of cynomolgus Siglec-2/CD22 (A0A2K5WCZ6 entry or part of it): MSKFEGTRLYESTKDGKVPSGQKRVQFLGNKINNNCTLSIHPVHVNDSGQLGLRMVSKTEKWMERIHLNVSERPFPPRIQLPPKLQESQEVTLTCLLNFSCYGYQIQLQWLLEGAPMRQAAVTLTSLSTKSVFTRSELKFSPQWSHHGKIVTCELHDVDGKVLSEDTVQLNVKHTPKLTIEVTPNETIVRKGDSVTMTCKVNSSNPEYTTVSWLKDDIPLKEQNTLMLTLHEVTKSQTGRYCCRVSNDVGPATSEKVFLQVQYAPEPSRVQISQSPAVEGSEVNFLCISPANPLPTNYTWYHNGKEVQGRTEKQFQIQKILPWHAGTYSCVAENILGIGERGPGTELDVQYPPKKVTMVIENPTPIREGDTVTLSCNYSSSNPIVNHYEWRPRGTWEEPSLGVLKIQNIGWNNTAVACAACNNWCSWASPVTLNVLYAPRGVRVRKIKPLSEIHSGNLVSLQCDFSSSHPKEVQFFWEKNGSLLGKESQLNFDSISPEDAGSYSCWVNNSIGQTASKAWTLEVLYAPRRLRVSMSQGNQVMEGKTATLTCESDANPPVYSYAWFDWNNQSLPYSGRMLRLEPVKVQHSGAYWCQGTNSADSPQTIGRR

| Compound | Kd (cynomolgus Siglec-2/CD22) | Kd [1] | Kd [2] |
| --- | --- | --- | --- |
| C#Cc1ccc(CO[C@]2(C(=O)O)C[C@H](O)[C@@H](NC(=O)CO)[C@H]([C@H](O)[C@H](O)CNC(=O)Cc3ccc(Cl)cc3)O2)cc1 [Compound 114, (2R,4S,5R,6R)-6-((1R,2R)-3-(2-(4-chlorophenyl)acetamido)-1,2-dihydroxypropyl)-2-((4-ethynylbenzyl)oxy)-4-hydroxy-5-(2-hydroxyacetamido)tetrahydro-2H-pyran-2-carboxylic acid] | < 1000 nM | < 1000 nM | < 1000 nM |
| O=C(Cc1ccc(Cl)cc1)NC[C@@H](O)[C@@H](O)[C@@H]1O[C@@](SCc2cccc(C(=O)O)c2)(C(=O)O)C[C@H](O)[C@H]1NC(=O)CO [Compound 116, (2S,4S,5R,6R)-2-((3-carboxybenzyl)thio)-6-((1R,2R)-3-(2-(4-chlorophenyl)acetamido)-1,2-dihydroxypropyl)-4-hydroxy-5-(2-hydroxyacetamido)tetrahydro-2H-pyran-2-carboxylic acid] | < 1000 nM | < 1000 nM | 1000 to 10000 nM |
| O=C(O)CCCO[C@]1(C(=O)O)C[C@H](O)[C@@H](NC(=O)CO)[C@H]([C@H](O)[C@H](O)CNC(=O)Cc2ccc(Cl)cc2)O1 [Compound 118, (2R,4S,5R,6R)-2-(3-carboxypropoxy)-6-((1R,2R)-3-(2-(4-chlorophenyl)acetamido)-1,2-dihydroxypropyl)-4-hydroxy-5-(2-hydroxyacetamido)tetrahydro-2H-pyran-2-carboxylic acid] | 1000 to 10000 nM | 1000 to 10000 nM | > 10000 nM |
| C#CCCCCCCc1cn([C@]2(C(=O)O)C[C@H](O)[C@@H](NC(=O)CO)[C@H]([C@H](O)[C@H](O)CNC(=O)Cc3ccc(Cl)cc3)O2)nn1 [Compound 119, (2R,4S,5R,6R)-6-((1R,2R)-3-(2-(4-chlorophenyl)acetamido)-1,2-dihydroxypropyl)-4-hydroxy-5-(2-hydroxyacetamido)-2-(4-(oct-7-yn-1-yl)-1H-1,2,3-triazol-1-yl)tetrahydro-2H-pyran-2-carboxylic acid] | 1000 to 10000 nM | 1000 to 10000 nM | 1000 to 10000 nM |
| C#CCCOc1ccc(CS[C@]2(C(=O)O)C[C@H](O)[C@@H](NC(=O)CO)[C@H]([C@H](O)[C@H](O)CNC(=O)Cc3cccc(Cl)c3)O2)cc1 [Compound 120, (2S,4S,5R,6R)-2-((4-(but-3-yn-1-yloxy)benzyl)thio)-6-((1R,2R)-3-(2-(3-chlorophenyl)acetamido)-1,2-dihydroxypropyl)-4-hydroxy-5-(2-hydroxyacetamido)tetrahydro-2H-pyran-2-carboxylic acid] | < 1000 nM | < 1000 nM | 1000 to 10000 nM |
| O=C(O)CCCCCO[C@]1(C(=O)O)C[C@H](O)[C@@H](NC(=O)CO)[C@H]([C@H](O)[C@H](O)CNC(=O)Cc2ccc(Cl)cc2)O1 [Compound 121, (2R,4S,5R,6R)-2-((5-carboxypentyl)oxy)-6-((1R,2R)-3-(2-(4-chlorophenyl)acetamido)-1,2-dihydroxypropyl)-4-hydroxy-5-(2-hydroxyacetamido)tetrahydro-2H-pyran-2-carboxylic acid] | < 1000 nM | < 1000 nM | 1000 to 10000 nM |
| C#CCCOc1ccc(CS[C@]2(C(=O)O)C[C@H](O)[C@@H](NC(=O)CO)[C@H]([C@H](O)[C@H](O)CNC(=O)Cc3ccc(Cl)cc3)O2)cc1 [Compound 122, (2S,4S,5R,6R)-2-((4-(but-3-yn-1-yloxy)benzyl)thio)-6-((1R,2R)-3-(2-(4-chlorophenyl)acetamido)-1,2-dihydroxypropyl)-4-hydroxy-5-(2-hydroxyacetamido)tetrahydro-2H-pyran-2-carboxylic acid] | < 1000 nM | < 1000 nM | < 1000 nM |
| C#CCCOc1ccc(CO[C@]2(C(=O)O)C[C@H](O)[C@@H](NC(=O)CO)[C@H]([C@H](O)[C@H](O)CNC(=O)Cc3cccc(Cl)c3)O2)cc1 [Compound 123, (2R,4S,5R,6R)-2-((4-(but-3-yn-1-yloxy)benzyl)oxy)-6-((1R,2R)-3-(2-(3-chlorophenyl)acetamido)-1,2-dihydroxypropyl)-4-hydroxy-5-(2-hydroxyacetamido)tetrahydro-2H-pyran-2-carboxylic acid] | < 1000 nM | < 1000 nM | 1000 to 10000 nM |
